Measurements published in patent US11744819B2, “Antibiotic cannabinoid-terpene formulations” (priority 2019, dated 2023).
In brackets after ≈: the same amount, converted by molar mass. Several values for one entry are separate records, joined by “and”; a condition that tells them apart may be missing. Equal entries are not always repeated. Where two headings read alike, the source gives them in different places.

Assays:
[1] = system: Staphylococcus aureus MRSA; experiment: microbe, parasite or virus in culture; format: cell-based
[2] = system: Streptococcus pyogenes ATCC 51878; experiment: MIC determination; format: cell-based; settings: Streptococcus pyogenes, ATCC51878
Enterococcus faecalis = experiment: MIC determination; format: cell-based
[3] = system: Staphylococcus epidermidis ATCC 14990; experiment: MIC determination; format: cell-based; settings: Staphylococcus epidermidis, ATCC14990
[4] = system: Staphylococcus epidermidis ATCC 12228; experiment: MIC determination; format: cell-based; settings: Staphylococcus epidermidis, ATCC12228
[5] = system: Mycobacterium abscessus ATCC 19977; experiment: MIC determination (resazurin); format: cell-based
[6] = system: Mycobacterium tuberculosis H37Rv; experiment: MIC determination (PrestoBlue); format: cell-based
[7] = system: Enterococcus faecium 33D3; experiment: microbe, parasite or virus in culture
[8] = system: E. faecium clinical isolate 69C6 (vancomycin resistant); experiment: microbe, parasite or virus in culture; settings: Enterococcus faecium
[9] = system: E. faecium clinical isolate 58C9 (vancomycin and daptomycin resistant); experiment: microbe, parasite or virus in culture; settings: Enterococcus faecium
[10] = system: E. faecium clinical isolate 55A6 (vancomycin and daptomycin resistant); experiment: microbe, parasite or virus in culture; settings: Enterococcus faecium
E. faecium 3303 = experiment: microbe, parasite or virus in culture; format: cell-based, Enterococcus faecium; settings: for MIC Alone / MIC In combination / Max. fold change in MIC: E. faecium 3303; for MIC Alone: compound alone in checkerboard; for Max. fold change in MIC: decrease; for activities of the terpene with CBC, CBO, or CBG: terpene-cannabinoid combinations
Description: In therapeutic applications, synergy between active ingredients occurs when an observed combined therapeutic effect is greater than the sum of therapeutic effects of individual active ingredients, or a new therapeutic effect is produced that the active ingredients could not produce alone. […] In this context, the enhancement of therapeutic effect may take the form of increased efficacy or potency and/or decreased adverse effects. The synergistic effect may be mediated in whole or in part by the pharmacokinetics and/or pharmacodynamics of the active ingredients in a subject, so that the amount and proportion of the ingredients in the formulation may be synergistic in vivo. This in vivo synergy may be effected with a formulation that includes the active ingredients in amounts and proportions that are also synergistic in in vitro assays of efficacy. As used herein, the term “synergistically effective amounts” accordingly refers to amounts that are synergistic in vivo and/or in vitro. A numeric quantification of synergy is often expressed as a fractional inhibitory concentration index (FICI), which represents the sum of the fractional inhibitory concentrations (FICs) of each drug tested, where the FIC is determined for each drug by dividing the minimum inhibitory concentration (MIC, the lowest concentration of the drug which prevents visible growth of the bacterium in a standard in vitro assay-standard colorometric assay based on resazurin) of each drug when used in combination by the MIC of each drug when used alone. In very general terms, a FICI lower or higher than 1 indicates positively correlated activity (at least additive or potentiation) or an absence of positive interactions, respectively. More definitively, synergy of two compounds may be conservatively defined as a FICI of ::::0.5 (see Odds, 2003; with additivity or potentiation corresponding to a FICI of >0.5 to ::::0.75; no interaction (indifference) corresponding to a FICI of >1 to ::::4; and antagonism corresponding to a FICI of >>4). Synergy of three compounds has been defined as a FICI of ::::1.0. (Berenbaum, 1978; Yu et al., 1980). To estimate the optimal concentrations in triple combinations, the optimal concentrations of trans-caryophyllene and cannabinoid were utilized in combination with a series of daptomycin dilutions.
(§1) Pre-cultures of bacteria growing in their corresponding liquid media (defined below) were diluted to an 00600 of 0.0025 and 100 μl was added to 100 μl of medium containing serial 2-fold dilutions of cannabinoid (cannabinoid stocks, in methanol or acetonitrile for acidic forms, were diluted in growth medium) in 96-well plates. Plates were then incubated for 20-24 h at 37° C., and growth was recorded as 00600 in a Thermo Scientific™ Varioskan™ Flash Multimode Reader.
Method for Tables 4-7. Interaction of Cannabinoids CBC, CBD and CBG with Terpenes and Daptomycin:
(§2) FICI values was determined in a 96 well checkerboard format using the MIC assay for cannabinoids (compound A), terpenes (compound B), and daptomycin (compound C) alone and in combinations. Terpene stocks were prepared in DMSO and diluted in the growth medium. The fractional inhibitory concentration for each compound was calculated as follows: FICA=(MIC of compound A in the presence of compound B)/(MIC of compound A alone). Similarly, the FICs for compounds Band C were calculated. The FICI was calculated as FICA plus FICs plus FICc.

E. faecium VRE 55A6 = experiment: microbe, parasite or virus in culture; format: cell-based, Enterococcus faecium; settings: E. faecium VRE 55A6
Description: In therapeutic applications, synergy between active ingredients occurs when an observed combined therapeutic effect is greater than the sum of therapeutic effects of individual active ingredients, or a new therapeutic effect is produced that the active ingredients could not produce alone. […] In this context, the enhancement of therapeutic effect may take the form of increased efficacy or potency and/or decreased adverse effects. The synergistic effect may be mediated in whole or in part by the pharmacokinetics and/or pharmacodynamics of the active ingredients in a subject, so that the amount and proportion of the ingredients in the formulation may be synergistic in vivo. This in vivo synergy may be effected with a formulation that includes the active ingredients in amounts and proportions that are also synergistic in in vitro assays of efficacy. As used herein, the term “synergistically effective amounts” accordingly refers to amounts that are synergistic in vivo and/or in vitro. A numeric quantification of synergy is often expressed as a fractional inhibitory concentration index (FICI), which represents the sum of the fractional inhibitory concentrations (FICs) of each drug tested, where the FIC is determined for each drug by dividing the minimum inhibitory concentration (MIC, the lowest concentration of the drug which prevents visible growth of the bacterium in a standard in vitro assay-standard colorometric assay based on resazurin) of each drug when used in combination by the MIC of each drug when used alone. In very general terms, a FICI lower or higher than 1 indicates positively correlated activity (at least additive or potentiation) or an absence of positive interactions, respectively. More definitively, synergy of two compounds may be conservatively defined as a FICI of ::::0.5 (see Odds, 2003; with additivity or potentiation corresponding to a FICI of >0.5 to ::::0.75; no interaction (indifference) corresponding to a FICI of >1 to ::::4; and antagonism corresponding to a FICI of >>4). […] (Berenbaum, 1978; Yu et al., 1980). To estimate the optimal concentrations in triple combinations, the optimal concentrations of trans-caryophyllene and cannabinoid were utilized in combination with a series of daptomycin dilutions.
as §1, §2

[11] = system: Enterococcus faecium 33D3
[12] = system: E. faecium clinical isolate 69C6 (vancomycin resistant); settings: clinical enterococcal strain 69C6, vancomycin resistant
[13] = system: E. faecium clinical isolate 58C9 (vancomycin and daptomycin resistant); settings: clinical enterococcal strain 58C9, vancomycin and daptomycin resistant
[14] = system: E. faecium clinical isolate 55A6 (vancomycin and daptomycin resistant); settings: clinical enterococcal strain 55A6, vancomycin and daptomycin resistant
[15] = Mycobacteroides abscessus, ATCC19977
[16] = Mycobacterium tuberculosis, H37RV, Media 7H9, read-out: MIC
[17] = Mycobacterium tuberculosis, H37RV, Media PB, read-out: MIC
[18] = 33D3, Enterococcus faecium 33D3 (Table 1)
[19] = 33D3, clinical enterococcal strain 3303
[20] = triple, with daptomycin and CBC
[21] = triple, with daptomycin and CBD
[22] = triple, with daptomycin and CBG

## CCCCCc1cc(O)c(C/C=C(\C)CCC=C(C)C)c(O)c1C(=O)O [CBGA, cannabigerolic acid]
[1]
  MIC: 1 µg/mL (≈ 2.77 µM)
[2]
  MIC: 2 µg/mL (≈ 5.55 µM)
Enterococcus faecalis
  MIC: 8 µg/mL (≈ 22.2 µM)
[3]
  MIC: 2 µg/mL (≈ 5.55 µM)
[4]
  MIC: 2 µg/mL (≈ 5.55 µM)
[5]; [15]
  MIC: 16 µg/mL (≈ 44.4 µM)
[6]; [16]
  MIC: 4 µg/mL (≈ 11.1 µM)
[6]; [17]
  MIC: 2 µg/mL (≈ 5.55 µM)
[7]; [18]
  MIC: 16 µg/mL (≈ 44.4 µM)
[7]; [19]
  MIC: 16 µg/mL (≈ 44.4 µM)
[8]
  MIC: 8 µg/mL (≈ 22.2 µM)
[9]
  MIC: 16 µg/mL (≈ 44.4 µM)
[10]
  MIC: 8 µg/mL (≈ 22.2 µM)

## C=C(C)[C@@H]1CCC(C)=C[C@H]1c1c(O)cc(CCCCC)c(C(=O)O)c1O [CBDA, cannabidiolic acid]
[1]
  MIC: 16 µg/mL (≈ 44.6 µM)
[2]
  MIC: 8 µg/mL (≈ 22.3 µM)
Enterococcus faecalis
  MIC: 16 µg/mL (≈ 44.6 µM)
[3]
  MIC: 4 µg/mL (≈ 11.2 µM)
[4]
  MIC: 4 µg/mL (≈ 11.2 µM)
[5]; [15]
  MIC: 32 µg/mL (≈ 89.3 µM)
[6]; [16]
  MIC: 2 µg/mL (≈ 5.58 µM)
[6]; [17]
  MIC: 4 µg/mL (≈ 11.2 µM)
[7]; [18]
  MIC: 16 µg/mL (≈ 44.6 µM)
[7]; [19]
  MIC: 16 µg/mL (≈ 44.6 µM)
[8]
  MIC: 16 µg/mL (≈ 44.6 µM)
[9]
  MIC: 16 µg/mL (≈ 44.6 µM)
[10]
  MIC: 16 µg/mL (≈ 44.6 µM)

## C=C1CC/C=C(\C)CC[C@@H]2[C@@H]1CC2(C)C (relative stereo) [Trans-caryophyllene, trans-caryophyllene]
E. faecium 3303
  MIC Alone: >16 µg/mL and 16 µg/mL
  activities of the terpene with CBC, CBO, or CBG: synergistic activities
E. faecium 3303; listed as Tram-caryophyllene
  MIC Alone: 32 µg/mL
E. faecium 3303; pairwise, with CBC
  MIC In combination: 0.25 µg/mL
  Max. fold change in MIC: 64 l fold
E. faecium 3303; pairwise, with CBD
  MIC In combination: 2 µg/mL
E. faecium 3303; pairwise, with CBG
  MIC In combination: 4 µg/mL
  Max. fold change in MIC: 8″′ fold
E. faecium 3303; pairwise, with daptomycin
  MIC In combination: 4 µg/mL
  Max. fold change in MIC: >4 l fold and >4″′ fold
E. faecium 3303; [20]
  MIC In combination: 2 µg/mL
  Max. fold change in MIC: 8 l fold
E. faecium 3303; [21]
  MIC In combination: 2 µg/mL
  Max. fold change in MIC: 8 fold
E. faecium 3303; [22]
  MIC In combination: 1 µg/mL
  Max. fold change in MIC: 16 fold
E. faecium VRE 55A6; pairwise, with CBC
  MIC In combination: 1 µg/mL
  Max. fold change in MIC: >32 fold
E. faecium VRE 55A6; pairwise, with CBD
  MIC In combination: 8 µg/mL
  Max. fold change in MIC: >4 fold
E. faecium VRE 55A6; pairwise, with CBG
  MIC In combination: >32 µg/mL
  Max. fold change in MIC: none
E. faecium VRE 55A6; pairwise, with daptomycin
  MIC In combination: 2 µg/mL
  Max. fold change in MIC: >8 fold
E. faecium VRE 55A6; [20]
  MIC In combination: 2 µg/mL
  Max. fold change in MIC: > 32 fold
E. faecium VRE 55A6; [21]
  MIC In combination: 2 µg/mL
  Max. fold change in MIC: > 32 fold
E. faecium VRE 55A6; [22]
  MIC In combination: 2 µg/mL
  Max. fold change in MIC: > 32 fold

## CCCCCc1cc2c(c(O)c1C(=O)O)C=CC(C)(CCC=C(C)C)O2 (stereo not shown) [CBCA, cannabichromic acid]
[1]
  MIC: 4 µg/mL (≈ 11.2 µM)
[2]
  MIC: 0.5 to 1 µg/mL
Enterococcus faecalis
  MIC: 4 µg/mL (≈ 11.2 µM)
[3]
  MIC: 2 µg/mL (≈ 5.58 µM)
[4]
  MIC: 2 µg/mL (≈ 5.58 µM)
[5]; Mycobacterium abscessus ATCC 19977
  MIC: 4 µg/mL (≈ 11.2 µM)
[6]; Media 7H9
  MIC: 2 µg/mL (≈ 5.58 µM)
[6]; Media PB
  MIC: 4 µg/mL (≈ 11.2 µM)
[11]; Enterococcus faecium 33D3 (Table 1)
  MIC: 4 µg/mL (≈ 11.2 µM)
[11]; clinical enterococcal strain 3303
  MIC: 4 µg/mL (≈ 11.2 µM)
[12]
  MIC: 4 µg/mL (≈ 11.2 µM)
[13]
  MIC: 4 µg/mL (≈ 11.2 µM)
[14]
  MIC: 2 µg/mL (≈ 5.58 µM)

## C/C1=C\CC/C(C)=C/CC(C)(C)/C=C/C1 [a-humulene]
E. faecium 3303
  activities of the terpene with CBC, CBO, or CBG: synergistic activities
